The target in one assay is T1, HDAC7 (Homo sapiens, UniProt Q8WUI4).
T1 sequence (Q8WUI4 1-952): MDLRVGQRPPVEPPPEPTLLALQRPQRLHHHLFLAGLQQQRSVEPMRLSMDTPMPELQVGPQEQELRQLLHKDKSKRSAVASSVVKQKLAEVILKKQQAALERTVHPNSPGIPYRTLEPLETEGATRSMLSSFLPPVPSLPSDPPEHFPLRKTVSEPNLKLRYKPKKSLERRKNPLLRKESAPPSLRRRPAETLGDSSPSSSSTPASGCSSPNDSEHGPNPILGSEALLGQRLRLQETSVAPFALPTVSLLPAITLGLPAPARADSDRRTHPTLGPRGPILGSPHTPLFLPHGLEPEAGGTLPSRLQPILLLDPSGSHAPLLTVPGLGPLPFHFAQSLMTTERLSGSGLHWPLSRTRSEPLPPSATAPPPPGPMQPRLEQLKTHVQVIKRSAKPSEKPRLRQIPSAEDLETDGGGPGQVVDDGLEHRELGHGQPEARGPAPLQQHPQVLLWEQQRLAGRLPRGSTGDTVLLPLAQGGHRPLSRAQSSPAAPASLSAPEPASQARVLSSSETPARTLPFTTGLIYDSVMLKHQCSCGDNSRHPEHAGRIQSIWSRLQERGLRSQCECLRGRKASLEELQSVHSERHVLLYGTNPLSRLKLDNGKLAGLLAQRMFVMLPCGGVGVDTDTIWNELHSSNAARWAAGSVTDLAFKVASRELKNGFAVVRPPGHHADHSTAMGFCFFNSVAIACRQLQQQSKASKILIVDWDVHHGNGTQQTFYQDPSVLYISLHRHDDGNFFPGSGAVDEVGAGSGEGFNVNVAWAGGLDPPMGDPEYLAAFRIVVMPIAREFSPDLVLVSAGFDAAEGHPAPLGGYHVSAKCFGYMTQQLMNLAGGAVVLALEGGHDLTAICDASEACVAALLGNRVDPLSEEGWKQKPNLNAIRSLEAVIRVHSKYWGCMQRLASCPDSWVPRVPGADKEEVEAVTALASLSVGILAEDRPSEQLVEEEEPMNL
Nature of the assay: HDAC biochemical activity measurement (fluorescent substrate deacetylation).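 Further: fluorogenic deacetylation assay using acetyl-lysine substrate at 20 µM, enzyme and compound incubated 30 min at 37 °C, then developer added, fluorescence read at 360/460 nm.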 The note with it: HDAC7; 37° C. 30 minutes.

Assay [1] concerns A549 (human lung cancer cells). Nature of the assay: MTT cancer cell growth inhibition. It is filed as cell-based. The conditions noted are these: Homo sapiens, A549, 72 h, MTT, 72 hours incubation, read-out: GI50 A54. The source says: (§1) MTT assay principle is yellow MTT can penetrate membrane into the cell, succinic dehydrogenase of the mitochondria in living cells can make exogenous MTT reduction of insoluble in water of blue-violet acicular formazan for crystallization and deposition in the cell, crystallization can be dissolved dimethyl sulfoxide (DMSO) solution, detected its absorbance at 490 nm/570 nm wavelength by enzyme-linked immunosorbent assay, which can reflect the number of cells.
(§2) Using DMEM+10% FBS culture medium or using 1640+10% FBS culture, respectively.
(§3) a) Cells were seeded in 96-well plates with the inoculation of 1500/well, 190 μl/hole, 37° C., 5% of CO2 incubator overnight;
(§4) b) The next day each well was added 10 μl of different drugs. The final concentration of drug was 10^−5˜10^−10M, three parallel holes; 37° C., 5% CO2 culture incubator for 72 hours incubation;
(§5) c) Per well was added 20 μl 5 mg/ml of MTT, 37° C., 5% CO2 culture incubator for 4 hours incubation;
(§6) d) The supernatant was discarded. Each well was added 100 μl of DMSO and oscillation;
(§7) e) 570 nm readings. Calculate cell viability. GI50 calculation based on the results.

For assay [2], the system named is BGC-823 (human gastric cancer cells). Nature of the assay: MTT cancer cell growth inhibition. The note with it: Homo sapiens, BGC-823, 72 h, MTT, 72 hours incubation, read-out: GI50 BG. It is filed as cell-based.
From the text: as §1, §2, §3, §4, §5, §6, §7

Assay [3] has as its system Bel-7402 (human hepatoma cells). The assay is described as follows: MTT cancer cell growth inhibition. It is filed as cell-based. The note with it: Homo sapiens, Bel-7402, 72 h, MTT, 72 hours incubation, Bel-7402 cells; read-out: GI50 Bel-7402.
From the text: as §1, §2, §3, §4, §5, §6, §7

The subject of assay [4] is DU145 (human prostate cancer cells). Nature of the assay: MTT cancer cell growth inhibition. The conditions noted are these: Homo sapiens, DU-145, 72 h, MTT, 72 hours incubation, read-out: GI50 Du1. It is filed as cell-based.
From the text: as §1, §2, §3, §4, §5, §6, §7

Assay [5] concerns H1975 (non-small cell lung adenocarcinoma). Nature of the assay: MTT cancer cell growth inhibition. The conditions noted are these: Homo sapiens, NCI-H1975, 72 h, MTT, 72 hours incubation, H1975 cells; read-out: GI50 H1975. It is filed as cell-based.
From the text: as §1, §2, §3, §4, §5, §6, §7

Assay [6] has as its system HCC827 (human non-small cell lung cancer cells). The assay is described as follows: MTT cancer cell growth inhibition. It is filed as cell-based. The conditions noted are these: Homo sapiens, HCC827, 72 h, MTT, 72 hours incubation, HCC827 cells; read-out: GI50 HCC827.
From the text: as §1, §2, §3, §4, §5, §6, §7

Assay [7] deals with HT1080 (human fibrosarcoma cells). Nature of the assay: MTT cancer cell growth inhibition. It is filed as cell-based. The conditions noted are these: Homo sapiens, HT-1080, 72 h, MTT, 72 hours incubation, read-out: GI50 HT1.
From the text: as §1, §2, §3, §4, §5, §6, §7

Assay [8] relates to Hela (human cervical cancer cells). The assay is described as follows: MTT cancer cell growth inhibition. It is filed as cell-based. The conditions noted are these: Homo sapiens, HeLa, 72 h, MTT, 72 hours incubation, read-out: GI50 Hela.
From the text: as §1, §2, §3, §4, §5, §6, §7

In assay [9] the test system is Huh-7 (human hepatoma cells). Nature of the assay: MTT cancer cell growth inhibition. It is filed as cell-based. The conditions noted are these: Homo sapiens, Huh-7, 72 h, MTT, 72 hours incubation, Huh-7 cells; read-out: GI50 Huh-7.
From the text: as §1, §2, §3, §4, §5, §6, §7

Assay [10] concerns K562 (human leukemia cells). The assay is described as follows: MTT cancer cell growth inhibition. It is filed as cell-based. The conditions noted are these: Homo sapiens, K562, 72 h, MTT, 72 hours incubation, K562 cells; read-out: GI50 K562.
From the text: as §1, §2, §3, §4, §5, §6, §7

Assay [11] relates to KBM-5 (human chronic myelogenous leukemia). The assay is described as follows: MTT cancer cell growth inhibition. It is filed as cell-based. The note with it: Homo sapiens, KBM5, 72 h, MTT, 72 hours incubation, KBM-5 cells; read-out: GI50 KBM-5.
From the text: as §1, §2, §3, §4, §5, §6, §7

Assay [12] has as its system KBM5-T315I (human chronic myelogenous leukemia). The assay is described as follows: MTT cancer cell growth inhibition. The conditions noted are these: Homo sapiens, 72 h, MTT, 72 hours incubation, KBM5-T315I cells; read-out: GI50 KBM5-T315I. It is filed as cell-based.
From the text: as §1, §2, §3, §4, §5, §6, §7

For assay [13], the system named is MCF-7 (human breast cancer cells). Nature of the assay: MTT cancer cell growth inhibition. The conditions noted are these: Homo sapiens, MCF7, 72 h, 72 hours incubation, read-out: GI50 MCF. It is filed as cell-based.
From the text: as §1, §2, §3, §4, §5, §6, §7

Assay [14] deals with MDA-MB-231 (breast cancer cells). Nature of the assay: MTT cancer cell growth inhibition. It is filed as cell-based. The conditions noted are these: Homo sapiens, MDA-MB-231, 72 h, read-out: GI50 MDA-MB-231, MTT, 72 hours incubation, MDA-MB-231 cells.
From the text: as §1, §2, §3, §4, §5, §6, §7

In assay [15] the test system is MOLT-4 (human acute lymphoblastic leukemia cells). Nature of the assay: MTT cancer cell growth inhibition. It is filed as cell-based. The conditions noted are these: Homo sapiens, MOLT-4, 72 h, MTT, 72 hours incubation, read-out: GI50 Mol.
From the text: as §1, §2, §3, §4, §5, §6, §7

The subject of assay [16] is N-87 (human gastric cancer cells). The assay is described as follows: MTT cancer cell growth inhibition. It is filed as cell-based. The conditions noted are these: Homo sapiens, 72 h, MTT, 72 hours incubation, N-87 cells; read-out: GI50 N-87.
From the text: as §1, §2, §3, §4, §5, §6, §7

The subject of assay [17] is PANC-1 (Pac-1, human pancreatic cancer cells). Nature of the assay: MTT cancer cell growth inhibition. It is filed as cell-based. The note with it: Homo sapiens, PANC-1, 72 h, MTT, 72 hours incubation, read-out: GI50 PAN.
From the text: as §1, §2, §3, §4, §5, §6, §7

In assay [18] the test system is SGC-7901 (human gastric cancer cells). Nature of the assay: MTT cancer cell growth inhibition. The note with it: Homo sapiens, SGC-7901, 72 h, MTT, 72 hours incubation, SGC-7901 cells; read-out: GI50 SGC-7901. It is filed as cell-based.
From the text: as §1, §2, §3, §4, §5, §6, §7

The subject of assay [19] is U937 (human leukemia cells). The assay is described as follows: MTT cancer cell growth inhibition. It is filed as cell-based. The conditions noted are these: Homo sapiens, U-937, 72 h, MTT, 72 hours incubation, read-out: GI50 U93.
From the text: as §1, §2, §3, §4, §5, §6, §7

Assay [20] has as its system lncap (prostate cancer cells). Nature of the assay: MTT cancer cell growth inhibition. It is filed as cell-based. The note with it: Homo sapiens, LNCaP, 72 h, MTT, 72 hours incubation, read-out: GI50 lnca.
From the text: as §1, §2, §3, §4, §5, §6, §7

Read-outs that look alike come from different tables or passages of the source.

In the case of `C/C=C1\NC(=O)c2cc(SC)cc(n2)CNC(=O)C[C@@H](/C=C/CCSC(=O)CCCCCCC)OC(=O)[C@H](C(C)C)NC1=O` [Compound 148], on HDAC7, the “IC50 HDAC7” value was “no activity”. Moreover, the concentration for 50% growth inhibition (GI50) (as a rule, the concentration giving 50% growth inhibition) in [1] (A549 cells) is 20 nM; in assay [2] (BGC-823 cells) it was 40 nM; in [3], 53 nM; in assay [4] (DU145 cells), 50 nM; in assay [5], 39 nM; in assay [6], 16 nM. Besides, the GI50 in assay [7] (HT1080 cells) was 80 nM; in assay [8] (Hela cells), 40 nM; in assay [9], 64 nM; in [10] it was 62 nM; in assay [11], 35 nM; in assay [12], 53 nM. The GI50 was found to be 50 nM in assay [13] (MCF-7 cells); 51 nM in [14]; 80 nM in [15] (MOLT-4 cells); 47 nM in assay [16]; 40 nM in assay [17] (PANC-1 cells); 51 nM in assay [18]. In addition, the GI50 was 20 nM in assay [19] (U937 cells) and 40 nM in [20] (lncap cells).

Take `C/C=C1\NC(=O)c2cc(SC)cc(n2)CNC(=O)C[C@@H](/C=C/CCSC(C)=O)OC(=O)[C@H](Cc2ccccc2)NC1=O` [Compound 187]: at HDAC7, the “IC50 HDAC7” value is listed as “no activity”. For the same molecule, the GI50 amounted to 60 nM in [1] (A549 cells); 60 nM in assay [2] (BGC-823 cells); 43 nM in [3]; 50 nM in assay [4] (DU145 cells); 23 nM in [5]; 75 nM in [6]. Moreover, the GI50 in assay [7] (HT1080 cells) was 20 nM; in [8] (Hela cells) it was 40 nM; in assay [9], 85 nM; in assay [10], 45 nM; in assay [11] it was 21 nM; in assay [12] it was 41 nM. The GI50 in [13] (MCF-7 cells) was 20 nM; in assay [14], 11 nM; in assay [15] (MOLT-4 cells), 30 nM; in assay [16], 42 nM; in [17] (PANC-1 cells), 60 nM; in assay [18], 38 nM. The GI50 in [19] (U937 cells) and in [20] (lncap cells) was 60 nM in each case.

With `C=C1NC(=O)c2ccc(F)c(n2)CNC(=O)C[C@@H](/C=C/CCS)OC(=O)[C@H](C)NC1=O` [Compound 142], the “IC50 HDAC7” value on HDAC7 is “no activity”. Also, the GI50 is 130 nM in assay [1]; 70 nM in [2]; 73 nM in [3]; 50 nM in assay [4]; 59 nM in assay [5]; 66 nM in [6]. Besides, the GI50 in assay [7] is 70 nM; in assay [8], 50 nM; in assay [9], 38 nM; in assay [10], 84 nM; in assay [11], 73 nM; in assay [12], 35 nM. For the same molecule, the GI50 is 50 nM in [13]; 51 nM in [14]; 20 nM in assay [15]; 42 nM in [16]; 130 nM in [17]; 53 nM in assay [18]. In addition, the GI50 is 50 nM in assay [19] and 110 nM in [20].
